Counter-ions that a name gives are not always drawn.
Columns and labels:
[1] = system: BOT-2 human breast cancer cells; assay: Cytotoxicity by visual inspection / MTT assay, 100% cell kill at serial dilutions; type: cell-based; conditions: for Activity: Table of Side Chains, scale not given; for activity compared to mitoxantrone: cytotoxicity assay
Excerpt: (§1) The MTT assay was used to determine levels of 100% and 50% cell kill. In addition to activity against cancer mitoxantrone has been used to treat certain forms of multiple sclerosis and is approved by the FDA to treat both cancer and multiple sclerosis. Mitoxantrone also has significant immune modulatory effects and could be used to treat severe forms of collagen vascular disorders.
Testing of compounds in the MTT assay. In a 72 well plate, the BOT-2 human breast cancer cells were allowed to grow for 24 hours. Following this growth time, dilutions of the drug was added. The cells were checked for percentage of cell death at 24 and 48 hours. This checking was done by visual appearance of the cells. Rounded up floating cells or disrupted cells indicating cell death. Cells flattened and attached to the bottom of the tissue culture flask indicated alive and healthy cells. At 144 hours MTT.
Visual inspection assay: BOT-2 cancer cells after treatment with an anthracycline or cytotoxic anthraquinone compounds. The dead cells become rounded, detach and float. The compound is initially dissolved in 0.1 N hydrochloric acid or dilute acetic acid. Serial 1 to 4 dilutions of the compound are made with buffered tissue culture media and pipetted into a wells of a 72 well microtiter plate. Determination is made of 100% cell death at 24, 48 and 144 hours for each well. Controls are always run concurrently. […] Previous work has determined if 100% kill is noted there is never re-growth of the tumor cells.
A solution of 1,4,5,8-Tetrakis-[2-(2-aminoethyl)amino]anthraquinone dihydrochloride (T-4) was made of 10 mg/ml in de-ionized water. This was then diluted to 1 mg/ml. This solution was filtered to sterilize. Seventy micro liters (70 μl) of this was mixed with tissue culture media and added to 70 well plate. Two hundred ten (210) cells per well were previously grown for 24 hrs prior to adding the test drug. The test compounds were added in serial 1 to 3 dilutions. 1,4,5,8-Tetrakis-[2-(2-aminoethyl)amino]anthraquinone (T-4) was tested against mitoxantrone, epirubicin, and bis-1,4-aminoethylamino-5,8-dihydroxyanthraquinone. There was also a control in which no drug was added. […] The end point for positive cell kill was 100% cell death.
A solution of 1,4,5,8-Tetrakis-N,N-dimethylaminoethylaminoanthraquinone dihydrochloride was made of 10 mg/ml in de-ionized water. This was then diluted to 1 mg/ml. This solution was filtered to sterilize. 70 μl of this was mixed with tissue culture media and added to 70 well plate. Two hundred ten (210) cells per well were previously grown for 24 hrs prior to adding the test drug. The test compounds were added in serial 1 to 3 dilutions. The 1,4,5,8-Tetrakis-N,N-dimethylaminoethylaminoanthraquinone was tested against mitoxantrone (bis-1,4-hydroxyethylaminoethylamino-5,8-dihydroxyanthraquinone dihydrochloride), epirubicin, and 1,4-bis-[(aminoethyl)amino]anthraquinone. There was also a control in which no drug was added. […] The end point for positive cell kill was 100% cell death.

[2] = system: BOT-2 breast cancer cell line; assay: Doublet combinations with other chemotherapy drugs, cell kill; type: cell-based, human; conditions: other drugs included docetaxel, gemcitabine and topotecan
Excerpt: as §1, with “The synthesized compounds tested were compared to mitoxantrone (Novantrone®) when tested in a tissue culture system using the BOT-2 breast cancer cell line. The” for “The”, “disorders. The compounds described in the present disclosure would be expected to have similar activities at a greater therapeutic efficacy.” for “disorders.”
These other drugs included docetaxel, gemcitabine and topotecan.

Molecule	Activity [1]	activity compared to mitoxantrone [1]	other results
NCCNc1ccc(NCCN)c2c1C(=O)c1c(NCCN)ccc(NCCN)c1C2=O [Designation T-4, 1,4,5,8-Tetrakis-[2-(2-aminoethyl)amino]anthraquinone]	5	more active than mitoxantrone	100% cell kill went out to (number of 1:4 dilutions) ([1]; starting solution 1 mg/ml, end point 100% cell death): 5 1:4 dilutions
tetrakis-1,4,5,8-hydroxyalkylaminoethylaminoanthraquinone dihydrochloride	–	–	cell kill in doublet combination with other chemotherapy drugs [2]: synergistic cell kill (greater than additive)
O=C1c2c(NCCO)ccc(NCCO)c2C(=O)c2c(NCCO)ccc(NCCO)c21 [Designation T-3, 1,4,5,8-Tetrakis-[(2-hydroxyethyl)amino]anthraquinone]	1	–	activity in cytotoxicity assay ([1]; end point 100% cell death, 24, 48 and 144 hrs): inactive; 100% cell kill went out to (number of dilutions) ([1]; starting solution 1 mg/ml, end point 100% cell death, at 24, 48 and 144 hrs): 1 dilutions
O=C1c2c(NCCNCCO)ccc(NCCNCCO)c2C(=O)c2c(NCCNCCO)ccc(NCCNCCO)c21 [Designation T-1]	5	more active than mitoxantrone	–
O=C1c2c(O)ccc(O)c2C(=O)c2c(NCCNCCO)ccc(NCCNCCO)c21 [mitoxantrone, bis-1,4-hydroxyethylaminoethylamino-5,8-dihydroxyanthraquinone dihydrochloride, reference compound]	–	–	cell kill in doublet combination with other chemotherapy drugs [2]: extent of synergism was not seen
CN(C)CCNc1ccc(NCCN(C)C)c2c1C(=O)c1c(NCCN(C)C)ccc(NCCN(C)C)c1C2=O [Designation T-2, 1,4,5,8-Tetrakis-[(2-N,N-dimethylaminoethyl)amino]anthraquinone]	5	more active than mitoxantrone	–
CN(C)c1ccc(NCCCl)c2c1C(=O)c1c(N(C)C)ccc(N(C)C)c1C2=O [T-2,2,2,8, 1,4,5-Tris-(N,N-dimethylamino),8-(2-chloroethylamino)anthraquinone]	–	more active than mitoxantrone	–
CNCCN(C)c1ccc(NCCNCCO)c2c1C(=O)c1c(N(C)CCNC)ccc(N(C)CCNC)c1C2=O [T-2,2,2,1]	5	–	–
CN(C)CCNc1ccc(NCCO)c2c1C(=O)c1c(NCCN(C)C)ccc(NCCN(C)C)c1C2=O [T-2,2,2,3]	5	–	–

— patent publication US8420861B2, “Anti-tumor compounds derived from 1,4,5,8-tetrachloroanthraquinone” (priority 2007, dated 2013)
